Data from patent publication US9682961B2, “Quinazoline derivative” (CARNA BIOSCIENCES, INC., priority 2013, dated 2017).

Test system: Wnt/β-catenin signaling pathway
Test: TCF-luciferase reporter gene assay (Wnt-3a stimulated HEK 293 cells)
Assay type: cell-based
Conditions: Homo sapiens, HEK293, Wnt-3a stimulation, read-out: Inhibitory activity against the Wnt/β-catenin signaling pathway
Description: Evaluation of inhibitory activity of the compounds of the present invention against the Wnt/β-catenin signaling pathway was performed by evaluating the inhibitory activity of the compounds of the present invention against the Wnt/β-catenin signaling pathway activated by the Wnt-3a ligand using a commercially available TCF-luciferase reporter gene assay system.
In a T75 flask, HEK 293 cells (ATCC No. CRL-1573) were added to a DMEM medium (manufactured by NACALAI TESQUE, INC., No. 08459-35) supplemented with 10% FBS (AusGeneX PTY LTD.) and 1% Penicillin/Streptomycin (NACALAI TESQUE, INC.). The cells in the flask were cultured in a 5% CO2 incubator.
The cultured HEK 293 cells were diluted with a DMEM medium supplemented with only 10% FBS so as to have a cell concentration of 2×10^5 cells/mL, and 100 μL each of the diluted cells were seeded into respective wells of 96-well plates (PerkinElmer Inc., ViewPlate No. 6005181), followed by culturing overnight in the 5% CO2 incubator. To an OptiMEM medium (Invitrogen® No. 11058), pGL4.49 [luc2p/TCF-LEF-RE/Hygro] plasmid DNA (Promega Corporation) and FuGENE® HD (Promega No. E2691) were added so as to have concentrations of 1 μg/mL and 3 μg/mL, respectively, to prepare a transfection solution as described in the protocol attached to the reagent. To the respective wells containing the HEK 293 cells cultured overnight, 100 μL each of the transfection solution was added gently, followed by culturing overnight in the 5% CO2 incubator to perform transfection.
To a DMEM medium, 0.5% charcoal/dextran treated Fetal Bovine Serum (Thermo Scientific No. SH30068.02) and LiCl (Sigma-Aldrich No. L9650) were added to prepare a LiCl-containing medium (final concentration of LiCl: 10 mM). The medium in the respective wells of the HEK 293 cells cultured overnight and transfected with a reporter gene was removed by decantation. The LiCl-containing medium (90 μL) was added gently to each well, followed by culturing overnight in the 5% CO2 incubator.
A DMSO stock solution of the compound to be tested was diluted 100-fold with a LiCl-containing medium so as to prepare a solution of the compound to be tested, which is 10 times the test concentration. Further, Recombinant Mouse Wnt-3a (R&D Systems, Inc. #1324-WN) was dissolved in a 0.1% BSA-PBA solution so as to have a concentration of 40 μg/mL, and the resultant solution was diluted with a LiCl-containing medium so as to have a concentration of 100 ng/mL, to prepare a Wnt-3a solution. To each well of the HEK 293 cells cultured overnight in the LiCl-containing medium, 10 μL each of the solution of the compound to be tested was added, followed by culturing in the 5% CO2 incubator for 2 hours (the final concentration of the compound to be tested: 3-0.03 μM). Thereafter, 10 μL each of the Wnt-3a solution was added to the respective wells, followed by further culturing for 5 hours.
Using ONE-Glo™ Luciferase Assay System (Promega Corporation, No. E6110), the luciferase activity of the cells in the wells was measured by a microplate reader (Synergy H1, BioTek Instruments, Inc.) An IC50 value was calculated from the luminescence intensity of each compound concentration, supposing that the luminescence intensity of a group with no addition of the compound and with Wnt-3a stimulation was 100%, and that the luminescence intensity of a group with no addition of the compound and with no Wnt-3a stimulation was 0%.

- IC50: < 300 nM
Structure (SMILES): O[C@H]1CC[C@@H](Oc2cccc3cnc(Nc4ccc5nc[nH]c5c4)nc23)CC1 [Example 1, cis-4-({2-[(1H-benzo[d]imidazol-6-yl)amino]quinazolyn-8-yl}oxy)cyclohexanol]
